Assay results from patent US20260137819A1 (Radionetics Oncology, Inc., priority 2022, published 2026).
Like-named read-outs stand apart in the source and are kept apart here. Starred links: 1 amine or outer side, 2 acyl side, 3 side chain; linkers in the order of their positions; H or OH if unused. Non-standard residues stand in square brackets, D forms with d. Residues, ends and D or L forms follow the SMILES beside them. Groups on a side chain read outwards from the residue. *: point of attachment. X1 = COc1cc2c(cc1-c1cccc(N*)c1)-c1c(c(C(=O)N3CCOCC3(C)C)nn1-c1cc(Cl)cc(Cl)c1)CO2; DOTA = O=C(O)CN1CCN(CC(=O)O)CCN(CC(=O)*)CCN(CC(=O)O)CC1; Suc = O=C(CCC(=O)[*:2])[*:1]; Sar = CNCC(=O)O

Molecular target: T1, human follicle-stimulating hormone receptor (FSHR) (Homo sapiens, UniProt P23945)
T1 construct: host or cells: CHO-K1
T1 sequence (P23945 18-695): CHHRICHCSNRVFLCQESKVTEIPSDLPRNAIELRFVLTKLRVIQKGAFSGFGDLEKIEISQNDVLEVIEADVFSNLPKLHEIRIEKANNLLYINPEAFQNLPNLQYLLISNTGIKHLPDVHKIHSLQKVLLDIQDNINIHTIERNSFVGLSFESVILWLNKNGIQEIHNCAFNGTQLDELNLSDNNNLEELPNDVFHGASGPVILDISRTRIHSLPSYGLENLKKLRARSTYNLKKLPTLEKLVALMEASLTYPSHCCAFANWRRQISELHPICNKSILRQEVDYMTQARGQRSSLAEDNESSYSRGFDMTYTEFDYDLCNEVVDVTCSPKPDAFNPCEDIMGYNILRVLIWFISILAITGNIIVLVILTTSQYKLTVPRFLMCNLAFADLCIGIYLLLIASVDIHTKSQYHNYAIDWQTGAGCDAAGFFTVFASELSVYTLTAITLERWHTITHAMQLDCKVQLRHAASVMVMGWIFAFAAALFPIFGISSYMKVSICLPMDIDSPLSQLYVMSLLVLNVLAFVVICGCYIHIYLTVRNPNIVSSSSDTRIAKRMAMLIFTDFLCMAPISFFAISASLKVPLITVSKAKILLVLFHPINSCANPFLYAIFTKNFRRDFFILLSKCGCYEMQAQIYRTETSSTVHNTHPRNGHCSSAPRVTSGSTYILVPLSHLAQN
Assay: Measurement of agonist cAMP production by activation of human FSHR
Format: cell-based
Conditions: 30 minutes at 37° C., HTRF cAMP kit
Method in brief: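 cAMP output was measured by HTRF after 30 min at 37 °C agonist exposure (0–10,000 nM final) in stably FSHR-transfected CHO-K1 cells. Lysate cAMP was read off a standard curve and fitted to obtain half-maximal EC50.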

[1] = CHO-K1 human FSHR cells, read-out: hFSHR Agonist cAMP EC50

Structure (SMILES)	EC50 [1]	EC50 (hFSHR Agonist cAMP EC50, CHO-K1 human FSHR cells)
COc1cc2c(cc1-c1cccc(NC(=O)CCC(=O)NCCCC[C@@H](NC(=O)[C@@H](C)NC(=O)[C@@H](CCC(=O)O)NC(=O)[C@@H](C)NC(=O)[C@@H](CCC(=O)O)NC(=O)[C@@H](C)NC(=O)CN3CCN(CC(=O)O)CCN(CC(=O)O)CCN(CC(=O)O)CC3)C(=O)N[C@H](C)C(N)=O)c1)-c1c(c(C(=O)N3CCOCC3(C)C)nn1-c1cc(Cl)cc(Cl)c1)CO2 [Compound 95]		10 to 100 nM
COc1cc2c(cc1-c1cccc(NC(=O)CCC(=O)NCCCC[C@@H](NC(=O)[C@@H](CO)NC(=O)[C@@H](CC(N)=O)NC(=O)[C@@H](C)NC(=O)CN3CCN(CC(=O)O)CCN(CC(=O)O)CCN(CC(=O)O)CC3)C(=O)N[C@H](CC(N)=O)C(=O)N[C@H](CO)C(=O)N[C@H](C)C(N)=O)c1)-c1c(c(C(=O)N3CCOCC3(C)C)nn1-c1cc(Cl)cc(Cl)c1)CO2 [Compound 97] ({DOTA}-[dA][dN][dS][dK]([Suc-X1])[dN][dS][dA]-NH2)	10 to 100 nM	
COc1cc2c(cc1-c1cccc(NC(=O)CCC(=O)N(C)CC(=O)N(C)CC(=O)N(C)CC(=O)N[C@H](CCCCNC(=O)CN3CCN(CC(=O)O)CCN(CC(=O)O)CCN(CC(=O)O)CC3)C(=O)N[C@H](CCC(=O)O)C(=O)N[C@H](Cc3ccc(O)cc3)C(=O)N[C@H](CCCCN)C(=O)N[C@H](CCC(=O)O)C(=O)N[C@H](CCC(=O)O)C(=O)N[C@H](CCC(=O)O)C(=O)N[C@H](CCC(=O)O)C(=O)N[C@H](CCCCN)C(N)=O)c1)-c1c(c(C(=O)N3CCOCC3(C)C)nn1-c1cc(Cl)cc(Cl)c1)CO2 [Compound 98] ({X1-Suc}-[Sar][Sar][Sar][dK](DOTA)[dE][dY][dK][dE][dE][dE][dE][dK]-NH2)	10 to 100 nM	
COc1cc2c(cc1-c1cncc(NC(=O)CCNC(=O)[C@@H](CC(=O)O)NC(=O)[C@@H](CC(=O)O)NC(=O)[C@H](N)CCCNC(=O)CN3CCN(CC(=O)O)CCN(CC(=O)O)CCN(CC(=O)O)CC3)c1)-c1c(c(C(=O)N3CCOCC3(C)C)nn1-c1cc(Cl)cc(Cl)c1)CO2 [Compound 99, 2,2′,2″-(10-((7R,10R,13R)-7-amino-10,13-bis(carboxymethyl)-18-((5-(1-(3,5dichlorophenyl)-3-(3,3-dimethylmorpholine-4-carbonyl)-7-methoxy-1,4-dihydrochromeno|4,3-c|pyrazol-8-yl)pyridin-3-yl)amino)-2,8,11,14,18-pentaoxo-3,9,12,15-tetraazaoctadecyl)-1,4,7,10-tetraazacyclododecane-1,4,7-triyl)triacetic acid]	10 to 100 nM	

Now from value to compound, other results behind:

EC50 [1]	Structure (SMILES)	EC50 (hFSHR Agonist cAMP EC50, CHO-K1 human FSHR cells)
10 to 100 nM	COc1cc2c(cc1-c1cncc(NC(=O)CCNC(=O)[C@@H](CC(=O)O)NC(=O)[C@@H](CC(=O)O)NC(=O)CC[C@@H](NC(=O)CN3CCN(CC(=O)O)CCN(CC(=O)O)CCN(CC(=O)O)CC3)C(=O)O)c1)-c1c(c(C(=O)N3CCOCC3(C)C)nn1-c1cc(Cl)cc(Cl)c1)CO2 [Compound 93]	
10 to 100 nM	COc1cc2c(cc1-c1cncc(NC(=O)CCNC(=O)[C@@H](CC(=O)O)NC(=O)[C@@H](CC(=O)O)NC(=O)CN3CCN(CC(=O)O)CCN(CC(=O)O)CCN(CC(=O)O)CC3)c1)-c1c(c(C(=O)N3CCOCC3(C)C)nn1-c1cc(Cl)cc(Cl)c1)CO2 [Compound 94]	
